Results reported in the supplement of paper PMC11451515.

Test system: SEM cells
Test: cell viability relative to DMSO control; higher = less cytotoxic
Settings: 48 h
Outline: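 Viability is a per-plate percentage relative to DMSO wells, with cell-free wells as background. CellTiter-Glo One luminescence was read after 48 h at 37°C on 1536-well plates (5 μl) of NOMO1 or SEM (500 cells/well) or P12-Ichikawa (1000 cells/well) leukemia cells. The cells had been adapted for at least four passages in each medium and pin-dosed with library compounds in DMSO from 47 μM to 0.79 nM in 11 threefold steps.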

[1] = HPLM + 10% dialyzed FBS, 0.000781 µM
[2] = HPLM + 10% dialyzed FBS, 0.00234 µM
[3] = HPLM + 10% dialyzed FBS, 0.00702 µM
[4] = HPLM + 10% dialyzed FBS, 0.0211 µM
[5] = HPLM + 10% dialyzed FBS, 0.0632 µM
[6] = HPLM + 10% dialyzed FBS, 0.19 µM
[7] = HPLM + 10% dialyzed FBS, 0.569 µM
[8] = HPLM + 10% dialyzed FBS, 1.71 µM
[9] = HPLM + 10% dialyzed FBS, 5.12 µM
[10] = HPLM + 10% dialyzed FBS, 15.4 µM
[11] = HPLM + 10% dialyzed FBS, 46.1 µM
[12] = RPMI 5 mM glucose + 10% FBS, 0.000781 µM
[13] = RPMI 5 mM glucose + 10% FBS, 0.00234 µM
[14] = RPMI 5 mM glucose + 10% FBS, 0.00702 µM
[15] = RPMI 5 mM glucose + 10% FBS, 0.0211 µM
[16] = RPMI 5 mM glucose + 10% FBS, 0.0632 µM
[17] = RPMI 5 mM glucose + 10% FBS, 0.19 µM
[18] = RPMI 5 mM glucose + 10% FBS, 0.569 µM
[19] = RPMI 5 mM glucose + 10% FBS, 1.71 µM
[20] = RPMI 5 mM glucose + 10% FBS, 5.12 µM
[21] = RPMI 5 mM glucose + 10% FBS, 15.4 µM
[22] = RPMI 5 mM glucose + 10% FBS, 46.1 µM
[23] = RPMI 5 mM glucose + 10% dialyzed FBS, 0.000781 µM
[24] = RPMI 5 mM glucose + 10% dialyzed FBS, 0.00234 µM
[25] = RPMI 5 mM glucose + 10% dialyzed FBS, 0.00702 µM
[26] = RPMI 5 mM glucose + 10% dialyzed FBS, 0.0211 µM
[27] = RPMI 5 mM glucose + 10% dialyzed FBS, 0.0632 µM
[28] = RPMI 5 mM glucose + 10% dialyzed FBS, 0.19 µM
[29] = RPMI 5 mM glucose + 10% dialyzed FBS, 0.569 µM
[30] = RPMI 5 mM glucose + 10% dialyzed FBS, 1.71 µM
[31] = RPMI 5 mM glucose + 10% dialyzed FBS, 5.12 µM
[32] = RPMI 5 mM glucose + 10% dialyzed FBS, 15.4 µM
[33] = RPMI 5 mM glucose + 10% dialyzed FBS, 46.1 µM

SMILES	cell viability [1] [%]	cell viability [2] [%]	cell viability [3] [%]	cell viability [4] [%]	cell viability [5] [%]	cell viability [6] [%]	cell viability [7] [%]	cell viability [8] [%]	cell viability [9] [%]	cell viability [10] [%]	cell viability [11] [%]	cell viability [12] [%]	cell viability [13] [%]	cell viability [14] [%]	cell viability [15] [%]	cell viability [16] [%]	cell viability [17] [%]	cell viability [18] [%]	cell viability [19] [%]	cell viability [20] [%]	cell viability [21] [%]	cell viability [22] [%]	cell viability [23] [%]	cell viability [24] [%]	cell viability [25] [%]	cell viability [26] [%]	cell viability [27] [%]	cell viability [28] [%]	cell viability [29] [%]	cell viability [30] [%]	cell viability [31] [%]	cell viability [32] [%]	cell viability [33] [%]
Cc1c(C(=O)c2cccc3ccccc23)c2cccc3c2n1[C@H](CN1CCOCC1)CO3	99.3	78.2	85.2	89.5	89.7	28.8	97.9	86.7	84	78.1	4.91	93.6	74.4	71.3	94.6	88.6	47.8	93.1	80.4	95.6	84.9	4.48	104	80.4	82	105	98	65.1	92.3	93.1	91.7	76.5	5.76
CC(C)n1cnc2c(NCCc3ccc(O)cc3)nc(-c3csc4ccccc34)nc21	105	91	99.5	114	114	139	116	122	122	39.8	10.4	111	103	102	108	101	125	129	99.2	77.2	8.37	8.04	106	97.7	103	110	114	127	132	122	57.7	11.4	7.89
CCOC(=O)N[C@@H]1CC[C@@H]2[C@@H](C1)C[C@H]1C(=O)O[C@H](C)[C@H]1[C@H]2/C=C/c1ccc(-c2cccc(F)c2)cn1	86.6	87.5	102	111	105	104	111	99.5	112	104	75.7	95.9	81.8	98.5	107	111	107	106	103	103	100	23.3	108	87.3	110	112	117	115	108	119	112	112	37.1
COc1cc2ncnc(Nc3cccc(Cl)c3)c2cc1OC	99.7	112	93.1	105	77.8	62.7	53.5	30.7	32.4	31.3	4.45	121	118	113	119	76.8	50.2	50.7	19.1	7.71	6.3	4.71	98.5	111	93	102	77.7	58.8	59.1	22.8	19.3	9.12	3.77
CC(C)CC(N(C)C)C1(c2ccc(Cl)cc2)CCC1 (configuration not stated)	114	119	117	133	124	117	126	110	90.4	54.3	59.1	111	127	118	116	121	128	121	105	75	40.2	46.7											
C[C@H]1Oc2cc(cnc2N)-c2c(nn(C)c2C#N)CN(C)C(=O)c2ccc(F)cc21	111	138	114	118	109	126	124	121	117	107	93.7	110	108	110	109	78.1	85.3	102	110	97.4	81.5	60.3	118	128	115	130	131	133	145	132	129	122	116
CCN(CC)CCCC(C)Nc1nc(C)cc(Nc2ccc3nc(C)cc(N)c3c2)n1 (configuration not stated)	100	104	96.1	100	101	115	106	114	110	99.7	88.2	75.2	80.4	75.3	72.2	69.6	65.5	75.5	75.6	63.9	66.1	72	115	97.1	113	107	100	118	98.9	106	96.4	99.6	86.4
CCOC(=O)[C@H]1O[C@@H]1C(=O)N[C@@H](CC(C)C)C(=O)NCCC(C)C	116	119	109	125	120	132	69.4	114	118	118	109	111	99.4	102	96.2	110	88.4	91.1	124	107	104	94.6											
